Experimental data reported in US12280047B2, “Treatment of aneurysms” (Georgia State Research Foundation, Inc., priority 2017, dated 2025).

Key:
Format in all cases: in vivo
[1] = test system: ApoE−/− and ApoE−/−/IDO−/− mice; assay: AngII-induced AAA formation in ApoE−/− and ApoE−/−/IDO−/− mice; conditions: AngII 1000 ng/min/kg, 4 weeks
Description: IDO^−/− and ApoE^−/− mice were obtained from Jackson laboratory (Bar Harbor, Maine) in a C57BL/6 background. IDO^−/− mice were crossed with ApoE^−/− mice to generate ApoE^−/−/IDO^−/− mice. Mice were housed in temperature-controlled cages under a 12-hour light/dark cycle and given free access to water and normal chow. All procedures involving animals were approved by the Institutional Animal Care and Use Committee at the University of Oklahoma Health Sciences Center. […] Circ Res. (2014) 114:480-92.
(§1) To quantify AAA incidence and size, the maximum width of abdominal aorta was measure with Image Pro Plus software (Media Cybernetics). We quantified aneurysm incidence based on a definition of aneurysm as an external width of the suprarenal aorta that was increased by 50% or greater compared with aortas from saline-infused mice, as described previously (Sparks A R, et al., Imaging of abdominal aortic aneurysms. Am Fam Physician. (2002) 65:1565-70). The average diameter of the normal suprarenal aorta in control mice is 0.8 mm. […]
AngII-induced mouse AAA formation in the atherosclerotic-susceptible strain (ApoE^−/−) has become the most widely used model. […] To unravel the role of the Trp-Kyn pathway in AAA formation ApoE^−/−/IDO^−/− (double-knockout) mice were generated and the outcome of a 4-week AngII infusion (1000 ng/min/kg) in ApoE^−/− and ApoE^−/−/IDO^−/− mice was determined. […]

[2] = test system: ApoE−/− and ApoE−/−/IDO−/− mice; assay: AngII-induced AAA after reciprocal bone marrow transplants; conditions: AngII 1000 ng/min per kg, 4 weeks
Procedure: Bone marrow transplantation was performed as described previously (Lukasova M, et al., Nicotinic acid inhibits progression of atherosclerosis in mice through its receptor GPR109A expressed by immune cells. J Clin Invest. (2011) 121:1163-73; Duran-Struuck R and Dysko R C. Principles of bone marrow transplantation (BMT): providing optimal veterinary and husbandry care to irradiated mice in BMT studies. J Am Assoc Lab Anim Sci. (2009) 48:11-22). Bone marrow was obtained aseptically from femora and tibiae of ApoE^−/− or ApoE^−/−/IDO^−/− mice. Cells (5×10^6/mouse) were resuspended in sterile PBS and transplanted by intravenous infusion into lethally irradiated (10 Gy) ApoE^−/− or ApoE^−/−/IDO^−/− mice recipients 6 hours after irradiation at the age of 8 weeks.
as §1, with “mm. We therefore set a threshold of 1.22 mm as evidence of aneurysm formation.” for “mm.”

ApoE−/− mice = assay: OMBA, NBA and 1MT treating AngII-induced abdominal aortic aneurysm (Example 15); conditions: ApoE−/− mice; AngII 1,000 ng/kg/min four weeks, then drug in drinking water 6 weeks; mice with AAA/group size
Procedure: To test the effect of other Kynurenine pathway inhibitors on treating AngII-induced abdominal aortic aneurysm, male ApoE^−/− mice at age 8 weeks were infused with AngII (1,000 ng/kg/min) or saline (0.9% sodium chloride) by Alzet osmotic pumps for four weeks. Four weeks later, Ang-II treated mice were divided into […] groups of 18 and administered o-methoxybenzo ylalanine (OMB), (m-nitrobenzoyl)alanine (NBA), 1-methyltryptophan (1MT) or vehicle control (water) by drinking water for 6 weeks.
To quantify AAA incidence and size, the maximum width of abdominal aorta was measured with Image Pro Plus software (Media Cybernetics). Aneurysm incidence was quantified based on a definition of aneurysm as an external width of the suprarenal aorta that was increased by 50% or greater compared with aortas from saline-infused mice. The average diameter of the normal suprarenal aorta in control mice is 0.8 mm. Therefore, a threshold of 1.22 mm as evidence of aneurysm formation was set. […] Incidence of AAA among the various groups of mice is outlined in FIG. 31A and Table 5 below.

## Angiotensin II (DRVYIHPF; Angiotensin-2; UniProt P01019 25-32, looked up) [AngII, Angiotensin II (Sigma, A9525) infused to induce AAA in mice]
[1]; ApoE−/− mice
  incidence of AngII-induced AAA: 73%
[1]; ApoE−/−/IDO−/− mice
  incidence of AngII-induced AAA: 15%
[2]; ApoE−/− mice transplanted with IDO−/− or IDO+/+ bone marrow cells
  AAA incidence: approximately 70%
[2]; ApoE−/−/IDO−/− mice transplanted with IDO−/− or IDO+/+ bone marrow cells
  AAA incidence: 20%
ApoE−/− mice
  Incidence of AAA: 15/18
